Measurements: patent publication US6441195B1, “Substituted sulphonylamino(thio) carbonyl compounds” (Bayer Aktiengesellschaft, priority 1995, dated 2002)

Key:
Format in all cases: in vivo
Matricaria = experiment: Pre-emergence test/Greenhouse, Matricaria; details: after three weeks
Outline: (§1)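 In this greenhouse test the application rate per unit area, not the concentration of the preparation, defines the dose; the emulsified preparation is applied to soil about 24 h post-sowing. Plants are scored for % damage versus untreated control after three weeks.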

Soya beans = experiment: Pre-emergence test/Greenhouse, Soya beans; details: in vivo
Experimental: To produce a suitable preparation of the active compound, 1 part by weight of active compound is mixed with the stated amount of solvent, the stated amount of emulsifier is added and the concentrate is diluted with water to the desired concentration.
Seeds of the test plants are sown in normal soil. After about 24 hours, the soil is watered with the preparation of active compound. Advantageously, the amount of water per unit area is kept constant. The active compound concentration in the preparation is not important, only the active compound appliation rate per unit area matters.
After three weeks, the degree of damage to the plants is rated in % damage in comparison to the development of the untreated control.
0%=no action (like untreated control)

weeds = experiment: Pre-emergence test (greenhouse), activity against weeds; details: in words
Outline: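 Compound formulated in acetone with alkylaryl polyglycol ether emulsifier, diluted in water, and watered onto soil about 24 h after sowing, dosed by application rate per unit area. Damage rated after three weeks as % versus untreated control (0% = no action).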

Sorghum = experiment: Pre-emergence test/Greenhouse, Sorghum; details: after three weeks
Outline: as §1

Poa = experiment: Pre-emergence test/Greenhouse, Poa; details: after three weeks
Outline: as §1

Maize = experiment: Pre-emergence test/Greenhouse, Maize; details: in vivo
Outline: as §1

Ambrosia = experiment: Pre-emergence test/Greenhouse, Ambrosia; details: after three weeks
Outline: as §1

Solanum = experiment: Pre-emergence test/Greenhouse, Solanum; details: after three weeks
Outline: as §1

Lolium = experiment: Pre-emergence test/Greenhouse, Lolium; details: after three weeks
Outline: as §1

CCCOC(=O)c1cccc(C)c1S(=O)(=O)NC(=O)n1nc(OC(C)C)n(C)c1=O [Example 23]
degree of damage to the plants (% damage vs untreated control), Matricaria (Matricaria; 125 g of ai./ha): 95%
degree of damage to the plants (% damage vs untreated control), Soya beans (Soya beans): 0%
activity against weeds (weeds): very strong activity against weeds
degree of damage to the plants (% damage vs untreated control), Sorghum (Sorghum; 125 g of ai./ha): 60%
degree of damage to the plants (% damage vs untreated control), Poa (Poa; 125 g of ai./ha): 80%
degree of damage to the plants (% damage vs untreated control), Maize (Maize): 0%
degree of damage to the plants (% damage vs untreated control), Ambrosia (Ambrosia; 125 g of ai./ha): 90%
degree of damage to the plants (% damage vs untreated control), Solanum (Solanum; 125 g of ai./ha): 90%

CCSc1nn(C(=O)NS(=O)(=O)c2c(C)csc2C(=O)OC)c(=O)n1C [Example 34]
degree of damage to the plants (% damage vs untreated control), Matricaria (Matricaria; 60 g of ai./ha): 95%
degree of damage to the plants (% damage vs untreated control), Soya beans (Soya beans): 0%
activity against weeds (weeds): very strong activity against weeds
degree of damage to the plants (% damage vs untreated control), Sorghum (Sorghum; 60 g of ai./ha): 80%
degree of damage to the plants (% damage vs untreated control), Poa (Poa; 60 g of ai./ha): 70%
degree of damage to the plants (% damage vs untreated control), Maize (Maize): 10%
degree of damage to the plants (% damage vs untreated control), Ambrosia (Ambrosia; 60 g of ai./ha): 90%
degree of damage to the plants (% damage vs untreated control), Lolium (Lolium; 60 g of ai./ha): 60%
degree of damage to the plants (% damage vs untreated control), Solanum (Solanum; 60 g of ai./ha): 90%

CCCOC(=O)c1cccc(C)c1S(=O)(=O)NC(=O)n1nc(CCC)n(C)c1=O [Example 47]
degree of damage to the plants (% damage vs untreated control), Matricaria (Matricaria; 125 g of ai./ha): 95%
degree of damage to the plants (% damage vs untreated control), Soya beans (Soya beans): 10%
activity against weeds (weeds): very strong activity against weeds
degree of damage to the plants (% damage vs untreated control), Sorghum (Sorghum; 125 g of ai./ha): 60%
degree of damage to the plants (% damage vs untreated control), Poa (Poa; 125 g of ai./ha): 90%
degree of damage to the plants (% damage vs untreated control), Maize (Maize): 10%
degree of damage to the plants (% damage vs untreated control), Ambrosia (Ambrosia; 125 g of ai./ha): 95%
degree of damage to the plants (% damage vs untreated control), Lolium (Lolium; 125 g of ai./ha): 90%
degree of damage to the plants (% damage vs untreated control), Solanum (Solanum; 125 g of ai./ha): 95%

COC(=O)c1cccc(C)c1S(=O)(=O)NC(=O)n1nc(OCC(F)(F)F)n(C)c1=O [Example 143]
degree of damage to the plants (% damage vs untreated control), Soya beans (Soya beans): 0%
activity against weeds (weeds): very strong activity against weeds
degree of damage to the plants (% damage vs untreated control), Sorghum (Sorghum; 60 g of ai./ha): 90%
degree of damage to the plants (% damage vs untreated control), Poa (Poa; 60 g of ai./ha): 90%
degree of damage to the plants (% damage vs untreated control), Maize (Maize): 20%
degree of damage to the plants (% damage vs untreated control), Ambrosia (Ambrosia; 60 g of ai./ha): 80%
degree of damage to the plants (% damage vs untreated control), Lolium (Lolium; 60 g of ai./ha): 90%
degree of damage to the plants (% damage vs untreated control), Solanum (Solanum; 60 g of ai./ha): 90%

COC(=O)c1cccc(C)c1S(=O)(=O)NC(=O)n1nc(SCCF)n(C)c1=O [Example 152]
degree of damage to the plants (% damage vs untreated control), Matricaria (Matricaria; 125 g of ai./ha): 80%
degree of damage to the plants (% damage vs untreated control), Soya beans (Soya beans): 20%
activity against weeds (weeds): very strong activity against weeds
degree of damage to the plants (% damage vs untreated control), Sorghum (Sorghum; 125 g of ai./ha): 95%
degree of damage to the plants (% damage vs untreated control), Poa (Poa; 125 g of ai./ha): 95%
degree of damage to the plants (% damage vs untreated control), Ambrosia (Ambrosia; 125 g of ai./ha): 95%
degree of damage to the plants (% damage vs untreated control), Lolium (Lolium; 125 g of ai./ha): 95%
degree of damage to the plants (% damage vs untreated control), Solanum (Solanum; 125 g of ai./ha): 95%

CCOn1c(CC)nn(C(=O)NS(=O)(=O)c2c(C)cccc2C(=O)OC)c1=O [Example 155]
degree of damage to the plants (% damage vs untreated control), Matricaria (Matricaria; 60 g of ai./ha): 80%
degree of damage to the plants (% damage vs untreated control), Soya beans (Soya beans): 40%
activity against weeds (weeds): very strong activity against weeds
degree of damage to the plants (% damage vs untreated control), Sorghum (Sorghum; 60 g of ai./ha): 95%
degree of damage to the plants (% damage vs untreated control), Poa (Poa; 60 g of ai./ha): 95%
degree of damage to the plants (% damage vs untreated control), Ambrosia (Ambrosia; 60 g of ai./ha): 90%
degree of damage to the plants (% damage vs untreated control), Lolium (Lolium; 60 g of ai./ha): 95%
degree of damage to the plants (% damage vs untreated control), Solanum (Solanum; 60 g of ai./ha): 95%

COC(=O)c1cccc(C)c1S(=O)(=O)NC(=O)n1nc(OCC2CC2)n(C)c1=O [Example 167]
degree of damage to the plants (% damage vs untreated control), Matricaria (Matricaria; 60 g of ai./ha): 95%
degree of damage to the plants (% damage vs untreated control), Soya beans (Soya beans): 30%
activity against weeds (weeds): very strong activity against weeds
degree of damage to the plants (% damage vs untreated control), Sorghum (Sorghum; 60 g of ai./ha): 95%
degree of damage to the plants (% damage vs untreated control), Poa (Poa; 60 g of ai./ha): 95%
degree of damage to the plants (% damage vs untreated control), Ambrosia (Ambrosia; 60 g of ai./ha): 90%
degree of damage to the plants (% damage vs untreated control), Lolium (Lolium; 60 g of ai./ha): 80%
degree of damage to the plants (% damage vs untreated control), Solanum (Solanum; 60 g of ai./ha): 90%

COC(=O)c1cccc(C)c1S(=O)(=O)NC(=O)n1nc(OCC2CC2)n(C2CC2)c1=O [Example 172]
degree of damage to the plants (% damage vs untreated control), Matricaria (Matricaria; 125 g of ai./ha): 95%
degree of damage to the plants (% damage vs untreated control), Soya beans (Soya beans): 60%
activity against weeds (weeds): very strong activity against weeds
degree of damage to the plants (% damage vs untreated control), Sorghum (Sorghum; 125 g of ai./ha): 90%
degree of damage to the plants (% damage vs untreated control), Poa (Poa; 125 g of ai./ha): 95%
degree of damage to the plants (% damage vs untreated control), Ambrosia (Ambrosia; 125 g of ai./ha): 90%
degree of damage to the plants (% damage vs untreated control), Lolium (Lolium; 125 g of ai./ha): 90%
degree of damage to the plants (% damage vs untreated control), Solanum (Solanum; 125 g of ai./ha): 95%
